Experiment [1] has as its target T1, D-2-hydroxyglutarate dehydrogenase (D-2-HGDH) (Homo sapiens, UniProt Q8N465).
T1 construct: gene D2HGDH
T1 sequence (Q8N465 51-521): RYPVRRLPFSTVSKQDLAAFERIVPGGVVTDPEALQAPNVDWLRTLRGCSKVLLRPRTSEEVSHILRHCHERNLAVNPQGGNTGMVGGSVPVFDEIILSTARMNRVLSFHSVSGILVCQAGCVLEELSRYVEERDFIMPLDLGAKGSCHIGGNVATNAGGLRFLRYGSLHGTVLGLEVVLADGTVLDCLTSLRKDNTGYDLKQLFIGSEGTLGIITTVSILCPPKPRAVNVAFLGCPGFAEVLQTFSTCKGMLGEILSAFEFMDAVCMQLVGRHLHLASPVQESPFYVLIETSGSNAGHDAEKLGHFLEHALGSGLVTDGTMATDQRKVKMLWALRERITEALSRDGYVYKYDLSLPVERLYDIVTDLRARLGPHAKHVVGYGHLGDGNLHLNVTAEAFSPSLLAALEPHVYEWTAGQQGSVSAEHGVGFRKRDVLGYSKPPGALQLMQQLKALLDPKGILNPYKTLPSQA
Description: crystal structure ([…] Å); SPR with DTT-treated protein (reduced FAD); no measurable binding to the untreated protein.

In experiment [2] the target is T1, D-2-hydroxyglutarate dehydrogenase (D-2-HGDH). Description: crystal structure ([…] Å), SPR, enzyme kinetics. It is filed as binding.
The target is the same in experiment [3]. Description: crystal structure ([…] Å), SPR, enzyme kinetics. In kind it is binding. The source holds these as a separate data set.
Experiment [4] has the same target. Description: crystal structure ([…] Å), SPR, enzyme kinetics. It is filed as binding. This is another data set of the same source.

pKd: −log10 of the molar value.

`O=C(O)CCC(=O)C(=O)O` [2-OG, 2-oxoglutarate]: the pKd in experiment [1] is 2.15.
Molecule `O=C(O)CC[C@@H](O)C(=O)O` [D-2-HG, D-2-hydroxyglutarate] had a pKd in experiment [2] of 3.83.
In turn, `C[C@@H](O)C(=O)O` [D-LAC, D-lactate] showed a pKd in experiment [3] of 2.79.
As for `O=C(O)C[C@@H](O)C(=O)O` [D-MAL, D-malate], the negative-log Kd (pKd) in experiment [4] was 3.10.

These data come from PMC7801405, “Structure, substrate specificity, and catalytic mechanism of human D-2-HGDH and insights into pathogenicity of disease-associated mutations” (Cell Discovery, 2021).
